{"source": "patent US9539243B2", "about": "“Triazole compounds that modulate HSP90 activity” (Synta Pharmaceuticals Corp., priority 2008, dated 2017)", "test_system": "Her2", "assay": "Her2 degradation in BT-474 cells by Western blot (Method 1)", "assay_type": "cell-based, Human", "settings": "0.5 μM, overnight", "protocol": "Human high-Her2 breast carcinoma BT474 (HTB-20), SK-BR-3 (HTB-30) and MCF-7 breast carcinoma (HTB-22) from American Type Culture Collection, Va., USA were grown in Dulbecco's modified Eagle's medium with 4 mM L-glutamine and antibiotics (100 IU/ml penicillin and 100 μg/ml streptomycine; GibcoBRL). To obtain exponential cell growth, cells were trypsinized, counted and seeded at a cell density of 0.5×10^6 cells/ml regularly, every 3 days. All experiments were performed on day 1 after cell passage.\nBT-474 cells are treated with 0.5 μM, 2 μM, or 5 μM of 17AAG (a positive control) or 0.5 μM, 2 μM, or 5 μM of a compound of the invention overnight in DMEM medium. After treatment, each cytoplasmic sample is prepared from 1×10^6 cells by incubation of cell lysis buffer (#9803, Cell Signaling Technology) on ice for 10 minutes. The resulting supernatant used as the cytosol fractions is dissolved with sample buffer for SDS-PAGE and run on a SDS-PAGE gel, blotted onto a nitrocellulose membrane by using semi-dry transfer. Non-specific binding to nitrocellulose is blocked with 5% skim milk in TBS with 0.5% Tween at room temperature for 1 hour, then probed with anti-Her2/ErB2 mAb (rabbit IgG, #2242, Cell Signaling) and anti-Tubulin (T9026, Sigma) as housekeeping control protein. […]"}
{"compound": "C=CCNC1=C2C[C@@H](C)C[C@H](OC)[C@H](O)[C@@H](C)/C=C(\\C)[C@H](OC(N)=O)[C@@H](OC)/C=C\\C=C(/C)C(=O)NC(=CC1=O)C2=O", "note": "[Compound 17AAG, 17-allylamino-17-demethoxygeldanamycin]", "values": [{"measurement": "degradation of Her2", "result": "partial degradation of Her2"}]}
